Publication PMC6804006, “Synthesis, Biological Activities and Docking Studies of Novel 4-(Arylaminomethyl)benzamide Derivatives as Potential Tyrosine Kinase Inhibitors” (Molecules, 2019)

Experiments:
[1] = tested on: MCF-7 (breast adenocarcinoma); assay: MTT anti-proliferative assay, MCF-7; format: cell-based; conditions: Homo sapiens, MCF7, 48 h, 50% growth inhibition
Protocol: (§1) Each in vitro experiment was performed at least in triplicate, and the standard deviation of absorbance was less than 10% of the mean. For the in vitro assays, a stock solution (1% DMSO in the appropriate buffer with the tested compound diluted under sonication) was prepared from which several dilutions were made with the appropriate buffer.
(§2) Human cell lines were obtained from the Institute of Cytology, Russian Academy of Sciences. […] Cellular sensitivities to clofarabine and its lipid derivatives were measured with the MTT assay. Cells were plated in triplicate in 96-well plates (10^5 cells/well for suspended cell cultures and 5 × 10^3 cells/well for monolayer cultures); on the same day (suspended cell cultures) or on the following day (monolayer cultures), compounds were added at the appropriate dilutions. Plates were incubated under standard conditions for 48 h. Thereafter, 10 μL of MTT (Sigma) in phosphate-buffered saline (5 mg/mL) was added. The plates were incubated for an additional 4 h, and 150 μL of dimethyl sulfoxide (DMSO) was added to dissolve the formazan crystals. The optical density was read on a HALO MPR-95 Microplate Reader (Dynamica Scientific Ltd., Australia) at 570 nm. The antiproliferative effects were determined as degrees of inhibition of tumor cells (%).

HeLa (cervix carcinoma) = assay: MTT anti-proliferative assay, HeLa; format: cell-based; conditions: Homo sapiens, 48 h, 50% growth inhibition
Protocol: as §1, §2

[2] = tested on: RPMI 1788 (B lymphocyte, human normal cells); assay: MTT assay on normal cells RPMI 1788; format: cell-based; conditions: MTT 48 h
Protocol: as §1
Human cell lines were obtained from the Institute of Cytology, Russian Academy of Sciences. The cell lines studied were maintained in RPMI 1640 medium (AppliChem, Darmstadt, Germany) supplemented with 20% (HL-60, RPMI 1788) fetal calf serum (HyClone, Cramlington, UK), in DMEM (A 549) and Eagle’s MEM (AppliChem) (MCF7, HeLa) with 10% fetal calf serum (HyClone). Cells were cultivated at 37 °C in a humidified atmosphere of 5% CO2. Cellular sensitivities to clofarabine and its lipid derivatives were measured with the MTT assay. Cells were plated in triplicate in 96-well plates (10^5 cells/well for suspended cell cultures and 5 × 10^3 cells/well for monolayer cultures); on the same day (suspended cell cultures) or on the following day (monolayer cultures), compounds were added at the appropriate dilutions. Plates were incubated under standard conditions for 48 h. Thereafter, 10 μL of MTT (Sigma) in phosphate-buffered saline (5 mg/mL) was added. The plates were incubated for an additional 4 h, and 150 μL of dimethyl sulfoxide (DMSO) was added to dissolve the formazan crystals. The optical density was read on a HALO MPR-95 Microplate Reader (Dynamica Scientific Ltd., Australia) at 570 nm. The antiproliferative effects were determined as degrees of inhibition of tumor cells (%).

A549 (lung carcinoma) = assay: MTT anti-proliferative assay, A-549; format: cell-based; conditions: Homo sapiens, 48 h, 50% growth inhibition
Protocol: as §1, §2

[3] = tested on: OKP-GS (carcinoma of the kidney); assay: MTT anti-proliferative assay, OKP-GS; format: cell-based; conditions: Homo sapiens, 48 h, 50% growth inhibition
Protocol: as §1, §2

Which results are given for Cc1cn(-c2cc(NCc3ccc(C(=O)Nc4cc(-n5cnc(C)c5)cc(C(F)(F)F)c4)cc3)cc(C(F)(F)F)c2)cn1 [Compound 8, N-(3-(4-methyl-1H-imidazol-1-yl)-5-(trifluoromethyl)phenyl)-4-(((3-(4-methyl-1H-imidazol-1-yl)-5-(trifluoromethyl)phenyl)amino)methyl)benzamide]?
IC50 [1]: 9.5 µM; IC50 (HeLa (cervix carcinoma)): 87 µM; melting point: 200 to 202 °C; inhibition at 100 µM [2]: 19.3%; IC50 (A549 (lung carcinoma)): 85 µM; IC50 [3]: > 100 µM
